Results taken from patent US20250270564A1, “EXTRACELLULAR VESICLE SECRETION BOOSTER FOR BOOSTING EXTRACELLULAR VESICLE SECRETION, AND USE THEREOF” (THEORIA SCIENCE INC., priority 2021, published 2025).

Experiments:
HCT116 = experiment: Amount of secreted EVs (ExoScreen / NTA method); type: cell-based, human; details: inhibitor at 10 nmol/L or 100 nmol/L, FIG. 12
Experimental: For preparation of a secreted EV sample for the ExoScreen method, cells were cultured and supernatant was collected as follows. First, cells were seeded in a 96-well plate using a serum-supplemented medium (the medium according to the type of cells) at 5×10^3 cells/medium 0.1 mL/well (Day 0). After incubation for 24 hours (Day 1), […], and the cells were transfected with the miRNA using a transfection agent (product name Dhermafect1, manufactured by Dhermacon, the same shall apply hereinafter) according to the instructions for use. […]
(§1) For preparation of a secreted EV sample for the NTA method, cells were cultured and supernatant was collected and purified as follows. […] After collecting the supernatant, the number of cells in each well was counted. […]
EV detection was performed using an exosome marker CD9 or C63 according to the ExoScreen method. EV detection was performed using an AlphaLISA reagent (Perkin Elmer) composed of AlphaScreen streptavidin-coated donor beads (6760002), AlphaLISA unconjugated acceptor beads (6062011), and an AlphaLISA universal buffer (AL001F), a 96-well half-area white plate (6005560, Perkin Elmer), and a detection device EnSpire Alpha 2300 Mutilabel plate reader (Perkin Elmer). […] Next, luminescence in the wells of the plate was measured using the detection device with the excitation wavelength set to 680 nm and the emission detection wavelength set to 615 nm. […]

A549 = experiment: Amount of secreted EVs (ExoScreen / NTA method); type: cell-based, human; details: inhibitor at 10 nmol/L or 100 nmol/L, FIG. 11
Experimental: For preparation of a secreted EV sample for the ExoScreen method, cells were cultured and supernatant was collected as follows. First, cells were seeded in a 96-well plate using a serum-supplemented medium (the medium according to the type of cells) at 5×10^3 cells/medium 0.1 mL/well (Day 0). After incubation for 24 hours (Day 1), 10 fmol of the miRNA was added, and the cells were transfected with the miRNA using a transfection agent (product name Dhermafect1, manufactured by Dhermacon, the same shall apply hereinafter) according to the instructions for use. […]
as §1
EV detection was performed using an exosome marker CD9 or C63 according to the ExoScreen method. EV detection was performed using an AlphaLISA reagent (Perkin Elmer) composed of AlphaScreen streptavidin-coated donor beads (6760002), AlphaLISA unconjugated acceptor beads (6062011), and an AlphaLISA universal buffer (AL001F), a 96-well half-area white plate (6005560, Perkin Elmer), and a detection device EnSpire Alpha 2300 Mutilabel plate reader (Perkin Elmer). […]

## CC(C)(Sc1cc(C(C)(C)C)c(O)c(C(C)(C)C)c1)Sc1cc(C(C)(C)C)c(O)c(C(C)(C)C)c1 [probucol]
HCT116
  EV secretion compared with NC: particularly effectively boosted EV secretion
A549
  EV secretion compared with NC: particularly effectively boosted EV secretion
